Laboratory results: BindingDB's records for patent US10188615 (ACUCELA INC., 2019)

What follows are compounds tested against T1, Retinoid isomerohydrolase (Human, UniProt Q16518) (assay: In Vitro Isomerase Inhibition Assay).
T1 sequence (Q16518 whole entry): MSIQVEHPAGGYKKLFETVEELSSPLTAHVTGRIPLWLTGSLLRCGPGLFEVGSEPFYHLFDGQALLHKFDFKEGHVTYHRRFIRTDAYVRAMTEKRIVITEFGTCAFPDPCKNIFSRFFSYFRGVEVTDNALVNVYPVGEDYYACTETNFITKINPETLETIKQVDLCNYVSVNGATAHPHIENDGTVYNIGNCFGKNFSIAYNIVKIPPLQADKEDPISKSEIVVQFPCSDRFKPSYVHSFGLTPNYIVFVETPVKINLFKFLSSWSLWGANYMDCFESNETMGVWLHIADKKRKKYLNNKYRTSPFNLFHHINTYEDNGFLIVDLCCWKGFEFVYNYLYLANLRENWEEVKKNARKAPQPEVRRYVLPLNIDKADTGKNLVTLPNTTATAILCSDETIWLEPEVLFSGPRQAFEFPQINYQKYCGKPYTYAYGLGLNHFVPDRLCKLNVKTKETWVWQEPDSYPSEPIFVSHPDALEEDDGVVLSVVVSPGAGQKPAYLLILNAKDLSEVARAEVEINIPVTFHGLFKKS
With `CCCC(CCC)COc1cccc(OCCN)c1` [US10188615, Example 25] the IC50 was “in the range around 55 nM”. `CCC(CC)COc1cccc(C[C@@H](O)CN)c1` [US10188615, Example 69] was tested, and the IC50 was “in the range around 55 nM”. `CCC(CC)COc1cccc(O[C@@H](C)CN)c1` [US10188615, Example 62] was tested, and the IC50 was “in the range around 550 nM”. `NCCOc1cccc(OCCCO)c1` [US10188615, Example 95] was tested, and the IC50 was “in the range around 5500 nM”. In the case of `NCC(O)c1cccc(OCC2CCCCC2)c1` (stereo not drawn) [US10188615, Example 127], the IC50 is reported as “in the range around 550 nM”. `NC[C@H](O)[C@@H](O)c1cccc(OCC2CCCCC2)c1` [US10188615, Example 177] gave an IC50 of 100 to 1000 nM. `NCCOc1cccc(OCC2CCCC2)c1` [US10188615, Example 104] was tested, and the IC50 was “in the range around 55 nM”. In the case of `NCCC(O)c1cccc(OCC2CCCCCCC2)c1` (stereo not drawn) [US10188615, Example 106], the IC50 is reported as “in the range around 55 nM”. For `NCCOc1cccc(OCC2(O)CCCCC2)c1` [US10188615, Example 26], the IC50 was “in the range around 550 nM”. With `COCCCOc1cccc(C(O)CCN)c1` (stereo not drawn) [US10188615, Example 108] the IC50 was “in the range around 55 nM”. `C[C@H](CN)Oc1cccc(OCC2CCCCC2)c1` [US10188615, Example 53] was tested, and the IC50 was “in the range around 550 nM”. With `NCCOc1cccc(OCC2CCCCCCC2)c1` [US10188615, Example 93] the IC50 was “in the range around 55 nM”. In the case of `COCCCCOc1cccc(CCCN)c1` [US10188615, Example 41], the IC50 is reported as “in the range around 550 nM”. With `NCCCc1cccc(OCC2CCCCO2)c1` (stereo not drawn) [US10188615, Example 162] the IC50 was “in the range around 550 nM”. In the case of `CC(C)CCOc1cccc(C(O)CCN)c1` (stereo not drawn) [US10188615, Example 107], the IC50 is reported as “in the range around 55 nM”. With `NC[C@@H](O)[C@@H](O)c1cccc(OCC2CCCCC2)c1` [US10188615, Example 180] the IC50 was “in the range around 55 nM”. With `NCCCc1cccc(OC[C@@H]2CCCC[C@H]2O)c1` (relative stereo) [US10188615, Example 148] the IC50 was “in the range around 55 nM”. `CCC(O)(CC)COc1cccc(CCCN)c1` [US10188615, Example 32] was tested, and the IC50 was “in the range around 55 nM”. With `CCCC(CCC)COc1cccc(O[C@H](C)CN)c1` [US10188615, Example 51] the IC50 was “in the range around 550 nM”. For `CCC(CC)COc1cccc(OCCN)c1` [US10188615, Example 36], the IC50 was “in the range around 55 nM”. `NCCCc1cccc(OCCOCc2ccccc2)c1` [US10188615, Example 102] was tested, and the IC50 was “in the range around 550 nM”. For `NCCOc1cccc(OCc2c(Cl)cccc2Cl)c1` [US10188615, Example 84], the IC50 was “in the range around 550 nM”. For `C[C@@H](CN)Oc1cccc(OCC2CCCCC2)c1` [US10188615, Example 65], the IC50 was “in the range around 550 nM”.
